Reference: patent US20100210682A1, “Repeated Dosing of TRPV1 Antagonists” (ABBOTT LABORATORIES, priority 2009, published 2010)
In brackets after ≈: the same amount, converted by molar mass.

Experiments:
[1] = tested on: MIA-induced osteoarthritic rats; experiment: Osteoarthritic pain model in rats (MIA), hind limb grip force; assay type: in vivo, rat; conditions: grip force; for ED50: Rattus norvegicus, po, MIA-induced osteoarthritic rats, p.o., acute dosing, read-out: Acute ED50 (μmol/kg; 95% Cl); for % Efficacy at Reduced Dose, Chronic (BID, 12 days) / % Efficacy at Reduced Dose, Acute: relative to naïve group; for % Efficacy at Reduced Dose, Acute: 1 hour after acute dosing; for analgesic effects following repeated dosing vs acute dosing: BID 12 days, reduced dose
Experimental: Unilateral knee joint osteoarthritis was induced in the rats by a single intraarticular (i.a.) injection of sodium monoiodoacetate (MIA) (Sigma, St. Louis, Mo.) (3 mg in 0.05 mL sterile isotonic saline) into the joint cavity using a 26 G needle under light (2-4%) halothane (Halocarbon Laboratories, River Edge, N.J.) anesthesia [Bove S E, Calcaterra S L, Brooker R M, Huber C M, Guzman R E, Juneau P L, et al. Weight bearing as a measure of disease progression and efficacy of anti-inflammatory compounds in a model of monosodium iodoacetate-induced osteoarthritis. Osteoarthritis Cartilage 2003; 11:821-30]. Following injection, the animals were allowed to recover from the effects of anesthesia (usually 5-10 min) before returning them to their home cages.
MIA-induced nociception can be assessed by measuring differences in weight bearing (WBD) or decrease in grip force (GF) several days to weeks following MIA injection [Bove S E, Calcaterra S L, Brooker R M, Huber C M, Guzman R E, Juneau P L, et al. Weight bearing as a measure of disease progression and efficacy of anti-inflammatory compounds in a model of monosodium iodoacetate-induced osteoarthritis. Osteoarthritis Cartilage 2003; 11:821-30; Fernihough J, Gentry C, Malcangio M, Fox A, Rediske J, Pellas T, et al. Pain related behaviour in two models of osteoarthritis in the rat knee. Pain 2004; 112:83-93].
In addition to weight-bearing differences, grip strength was also assessed in osteoarthritic rats approximately 21 days after MIA injection. Measurements of peak hind limb grip force were conducted by recording the maximum compressive force exerted on the hind limb strain gauge setup, in a commercially available grip force measurement system (Columbus Instruments, Columbus, Ohio). During testing, each rat was gently restrained by grasping around its rib cage and then allowed to grasp the wire mesh frame (10-12 cm^2) attached to the strain gauge. The experimenter then moved the animal in a rostral-to-caudal direction until the grip was broken. Each rat was sequentially tested twice at an approximately 2 min interval to obtain a raw mean grip force […]. These raw mean grip force data were in turn converted to a maximum hind limb compressive force (CFmax) (gram force)/kg body weight for each animal. A group of age-matched naïve animals was added to each experiment and the data obtained from the different dose groups for the compound being tested were compared to the naïve group.
Compound A was dissolved in 100% polyethylene glycol (PEG 400) for oral administration in a 2 mL/kg injection volume. Compounds B, C, and D were dissolved in 10% ethanol, 20% Tween 80 and 70% polyethylene glycol-400 for oral administration in a 2 mL/kg injection volume. All compounds were dosed orally (p.o.) 60 minutes before behavioral testing.
(§1) In the osteoarthritic pain model, animals were dosed twice-daily for 12 days using a dose that was non-efficacious following a single administration (e.g. 3 μmol/kg p.o. for Compound A). The animals were tested 1 hour after acute dosing (p.o.) and on day 12, 1 hour after oral dosing with either vehicle or the test compound.
The analgesic responses were shown as % effect relative to the healthy, untreated rats (naïve group).

[2] = Plasma levels in osteoarthritic rats after acute and repeated dosing; assay type: in vivo, rat; conditions: for Plasma Levels, Chronic: 1 hour after last dose on 12 days of BID dosing; for EC50: Rattus norvegicus, osteoarthritic rats, acute dosing
Experimental: as §1

Structure (SMILES) | ED50 [1] | % Efficacy at Reduced Dose, Chronic (BID, 12 days) ([1]; 12 μmol/kg p.o. BID 12 days) | % Efficacy at Reduced Dose, Acute ([1]; 12 μmol/kg p.o.) | analgesic effects following repeated dosing vs acute dosing [1] | Plasma Levels, Chronic ([2]; 12 μmol/kg) | EC50 [2] | % Efficacy at Reduced Dose, Chronic (BID, 12 days) ([1]; 5 μmol/kg p.o. BID 12 days) | % Efficacy at Reduced Dose, Acute ([1]; 5 μmol/kg p.o.) | % Efficacy at Reduced Dose, Chronic (BID, 12 days) ([1]; 15 μmol/kg p.o. BID 12 days) | % Efficacy at Reduced Dose, Acute ([1]; 15 μmol/kg p.o.) | Plasma Levels, Chronic ([2]; 5 μmol/kg) | Plasma Levels, Chronic ([2]; 15 μmol/kg) | % Efficacy at Reduced Dose, Chronic (BID, 12 days) ([1]; 10 μmol/kg p.o. BID 12 days) | % Efficacy at Reduced Dose, Acute ([1]; 10 μmol/kg p.o.) | Plasma Levels, Chronic ([2]; 10 μmol/kg)
C[C@@H]1CN(c2ncccc2Cl)CC=C1C(=O)Nc1ccc(C(F)(F)F)cc1 [B, (3S)-3′-chloro-3-methyl-N-[4-(trifluoromethyl)phenyl]-3,6-dihydro-2H-1,2′-bipyridine-4-carboxamide] | 17 µmol/kg | 80% | 30% | significantly increased | 760 at 12 μmol/kg ng/mL | 0.915 µg/mL (≈ 2.31 µM) | – | – | – | – | – | – | – | – | –
Cc1nc(Nc2cccc3c2C[C@H](O)CC3)oc1-c1ccc(C(F)(F)F)cc1 [C, (2R)-8-({4-methyl-5-[4-(trifluoromethyl)phenyl]-1,3-oxazol-2-yl}amino)-1,2,3,4-tetrahydronaphthalen-2-ol] | 14 µmol/kg | – | – | significantly increased | – | 0.5 µg/mL (≈ 1.29 µM) | 38% | 15% | 83% | 22% | 86 at 5 μmol/kg ng/mL | 150 at 15 μmol/kg ng/mL | – | – | –
CCC1(CC)C[C@@H](NC(=O)Nc2cccc3cnc(C)cc23)c2cc(F)ccc2O1 [D, N-[(4R)-2,2-diethyl-6-fluoro-3,4-dihydro-2H-chromen-4-yl]-N′-(3-methylisoquinolin-5-yl)urea] | 26 µmol/kg | – | – | significantly increased | – | 1 µg/mL (≈ 2.45 µM) | – | – | – | – | – | – | 62% | 28% | 217 at 10 μmol/kg ng/mL
